Test results taken from patent US5063245A, “Corticotropin-releasing factor antagonism compounds” (Nova Pharmaceutical Corporation, priority 1990, dated 1991).
Entries after “also recorded” stand apart in the source; their conditions may differ. Counter-ions that a name gives are not always drawn. Like-named read-outs stand apart in the source and are kept apart here. Ends that are not written are not given here.

Assays:
CRF receptor = target: T1, CRF receptor (Rattus norvegicus, UniProt P35353); assay: In vitro receptor binding: inhibition of specific binding of [125I]tyrosine-oCRF to rat cerebral cortex membranes; settings: [125I]Tyr-oCRF 50-100 pM, 2 hours at room temperature
T1 construct: the cerebral cortex was removed and the tissue homogenized; from tissue; host or cells: cerebral cortex membranes of male Sprague-Dawley rats
T1 sequence (P35353 24-415): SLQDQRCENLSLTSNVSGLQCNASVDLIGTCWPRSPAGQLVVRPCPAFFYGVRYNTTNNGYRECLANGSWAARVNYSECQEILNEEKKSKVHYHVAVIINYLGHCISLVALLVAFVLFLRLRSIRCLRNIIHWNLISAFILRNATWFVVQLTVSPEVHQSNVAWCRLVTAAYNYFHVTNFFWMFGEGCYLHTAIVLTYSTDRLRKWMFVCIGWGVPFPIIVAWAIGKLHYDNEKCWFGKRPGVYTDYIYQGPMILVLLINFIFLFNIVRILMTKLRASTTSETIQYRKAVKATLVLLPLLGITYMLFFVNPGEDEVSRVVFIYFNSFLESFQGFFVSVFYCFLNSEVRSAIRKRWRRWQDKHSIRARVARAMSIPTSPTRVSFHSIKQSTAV
Method: The potency of the compounds of the invention as inhibitors of the specific binding of radiolabeled CRF to rat cerebral cortex membranes was examined using a standard in vitro radioligand binding technique. […] The homogenate was centrifuged at 48,000×g for 10 minutes at 4° C. The supernatant was removed, the tissue pellet suspended in the original volume of fresh homogenization buffer using a Polytron and centrifuged as before. […] Incubation buffer consists of 50 mM Hepes (pH 7.0 at 22° C.) containing 10 mM MgCl2, 2 mM EGTA, 0.1 mM bacitracin, 100 KIU (kallikrein inhibitor units)/mL aprotinin and 0.1% BSA (bovine serum albumin). […] Nonspecific binding was determined in the presence of 1 μM oCRF. The binding reaction was allowed to proceed for 2 hours at room temperature. Bound radioligand was separated from the incubation medium by centrifugation in a Beckman microfuge for 5 minutes at 12,000×g. The supernatant was aspirated and the resulting pellet was washed with 1 mL of cold phosphate buffered saline (pH 7.2) containing 0.01% of Triton X-100.
Tyr-oCRF to rat cortical membranes was determined on at least three separate occasions using 8-10 concentrations of each compound and utilizing triplicate incubations. The IC50 and apparent Hill coefficient for each compound were calculated using a computer-assisted log-logit analysis.

[1] = target: CRF-stimulated adenylate cyclase; assay: Inhibition of CRF-stimulated adenylate cyclase activity (rat frontal cortex); assay type: biochemical; settings: 1 μM oCRF, 37° C., 10 minutes
Description: CRF antagonist activity is established by the ability of the compounds to antagonize CRF-stimulated adenylate cyclase activity, it having been established that CRF receptors are coupled to a guanine nucleotide regulatory protein that activates adenylate cyclase [G. Aguilera et al., Neuroendocrinology, 43, 79 (1986); G. Battaglia et al., Synapse, 1, 572 (1987)].
(§1) Male Sprague-Dawley rats (175-250 g) were sacrificed by decapitation, the frontal cortex was dissected and homogenized in 30 volumes (w/v) of ice-cold buffer (50 mM Tris HCl, 10 mM MgCl2, 2 mM EGTA; pH 7.2 at 22° C.). The homogenate was centrifuged at 40,000×g for 3 minutes (4° C.), the supernatant discarded and the pellet resuspended in original volume of fresh homogenization buffer. Following centrifugation at 40,000×g for 30 minutes, the resulting pellet was suspended to a tissue concentration of 20 mg original wet weight of tissue per mL (approximately 40-60 μg protein/mL). For determination of basal adenylate cyclase activity, assays are carried out at 37° C. for 10 minutes in 250 μL of buffer containing 100 mM Tris HCl, 10 mM MgCl2, 0.4 mM EGTA, 0.1% BSA, 1 mM isobutylmethylxanthine (IBMX), 3 units/tube phosphocreatine kinase, 5 mM creatine phosphate, 100 μM guanosine. Maximal stimulation of adenylate cyclase activity was accomplished by the addition of 10^-6 M oCRF. Stimulated enzyme activity generally represented a 75-95% increase over basal levels. Reactions were initiated by the addition of tissue and terminated by the addition of 150 μL of 50 mM Tris HCl, 45 mM ATP, 2% sodium dodecyl sulfate (SDS), and [^3 H] cAMP (approximately 40,000 dpm). The [^3 H]cAMP was added to each assay tube to monitor recovery of cAMP during subsequent chromatography steps. Separation of [^32 P]cAMP from [^32 P]ATP was accomplished by sequential elution over Dowex and alumina columns. The eluate (4 mL) was collected in 20 mL scintillation vials to which 8 mL of Beckman EP fluor was added. Vials were shaken for 30 minutes prior to measuring ^3 H and ^32 P by scintillation counting. All data were fed directly from the liquid scintillation counter via RS232 port to a VAX 8300 computer. Individual data points were expressed as pmoles of cAMP formed/10 minutes/mg protein. Protein content of tissue samples was measured using the BioRad method with bovine serum albumin serving as the standard.
Determination of antagonist activity was accomplished by addition of at least six concentrations of the compound (10^-8 -10^-4 M), evaluated in triplicate, in the presence of a maximally stimulating concentration of oCRF (1 μM). IC50 values were derived from a log-logit transformation of the data on a Vax 8300.

[2] = intracerebroventricular (icv); cited from earlier work
adenylate cyclase = assay: Stimulation of adenylate cyclase activity by oCRF (rat frontal cortex); assay type: biochemical; settings: 10^-6 M oCRF, 37° C., 10 minutes
Method: as §1, with “Reactions were initiated by the addition of tissue and terminated by the addition of 150 μL of 50 mM Tris HCl, 45 mM ATP, 2% sodium dodecyl sulfate (SDS), and [^3 H] cAMP (approximately 40,000 dpm). The [^3 H]cAMP was added to each assay tube to monitor recovery of cAMP during subsequent chromatography steps. Separation of [^32 P]cAMP from [^32 P]ATP was accomplished by sequential elution over Dowex and alumina columns. The eluate (4 mL) was collected in 20 mL scintillation vials to which 8 mL of Beckman EP fluor was added. Vials were shaken for 30 minutes prior to measuring ^3 H and ^32 P by scintillation counting. All data were fed directly from the liquid scintillation counter via RS232 port to a VAX 8300 computer.” left out

[3] = Table I, Formula I, read-out: Inhibition of CRF Binding, Rat Cerebral Cortex Membrane, IC50
[4] = Inhibition of CRF Binding, Rat Cerebral Cortex Membrane, IC50, Table I, Formula I
[5] = Table II, Formula II (disulfides), read-out: Inhibition of CRF Binding, Rat Cerebral Cortex Membrane, IC50
[6] = Table II, Formula II (disulfides)

Row | Compound | IC50 (CRF receptor; [3]) [µM] | IC50 ([1]; Table I, Formula I) [µM] | also measured
1 | CCc1c(SC#N)c(=O)n(CC)n1CC [Formula I: C2 H5, C2 H5, C2 H5, SCN, 1,2,3-triethyl-5-oxo-3-pyrazolin-4-yl thiocyanate] | 67 | 45 | –
2 | CCn1c(C)c(SC#N)c(=O)n1CC [Formula I: C2 H5, C2 H5, CH3, SCN, 1,2-diethyl-3-methyl-5-oxo-3-pyrazolin-4-yl thiocyanate] | – | 29.4 | IC50 (CRF receptor; [4]): 111 µM
3 | Cc1c(SC#N)c(=O)n(C2CCCCC2)n1C [Formula I: C6 H11, CH3, CH3, SCN, 1-cyclohexyl-2,3-dimethyl-5-oxo-3-pyrazolin-4-yl thiocyanate] | 15 | 35.2 | –
4 | CCn1c(C)c(SC#N)c(=O)n1Cc1ccccc1 [Formula I: CH2 Ph, CH2 CH3, CH3, SCN, 1-benzyl-2-ethyl-3-methyl-5-oxo-3-pyrazolin-4-yl thiocyanate] | 17 | 39.9 | –
5 | Cc1c(SC#N)c(=O)[nH]n1-c1ccc([N+](=O)[O-])cc1 [Formula I: H, 4-NO2 Ph, CH3, SCN] | 32 | 69.3 | –
6 | CCCn1c(C)c(SC#N)c(=O)n1-c1ccccc1 [Formula I: Ph, (CH2)2 CH3, CH3, SCN, 3-methyl-5-oxo-1-phenyl-2-propyl-3-pyrazolin-4-yl thiocyanate] | – | 16.9 | IC50 (CRF receptor; [4]): 32 µM
7 | CCn1c(C)c(SC#N)c(=O)n1-c1ccccc1 [Formula I: Ph, C2 H5, CH3, SCN, 2-ethyl-3-methyl-5-oxo-1-phenyl-3-pyrazolin-4-yl thiocyanate] | 12.2 | 6.5 | –
8 | CC(=O)Nc1cccc(-c2c(SC#N)c(=O)n(-c3ccccc3)n2C)c1 [Formula I: Ph, CH3,3-AcNHPh, SCN, 2-methyl-5-oxo-1-phenyl-3-(3-acetamidophenyl)-3-pyrazolin-4-yl thiocyanate] | 6.5 | 3 | –
9 | CCc1c(SC#N)c(=O)n(-c2ccccc2)n1C [Formula I: Ph, CH3, CH2 CH3, SCN, 3-ethyl-2-methyl-5-oxo-1-phenyl-3-pyrazolin-4-yl thiocyanate] | 19.1 | 31.7 | –
10 | CC(=O)Sc1c(C)n(C)n(-c2ccccc2)c1=O [Formula I: Ph, CH3, CH3, SAc, 2,3-dimethyl-5-oxo-1-phenyl-3-pyrazolin-4-yl thioacetate] | 13.7 | 2.9 | –
11 | Cc1c(SC(Cl)(Cl)Cl)c(=O)n(-c2ccccc2)n1C [Formula I: Ph, CH3, CH3, SCCl3, 2,3-Dimethyl-5-Oxo-1-Phenyl-3-4-trichloromethylthio-Pyrazoline] | – | 9.6 | IC50 (CRF receptor; [4]): 20.4 µM
12 | Cc1c(SC#N)c(=O)n(-c2ccccc2)n1C [Formula I: Ph, CH3, CH3, SCN, 2,3-dimethyl-5-oxo-1-phenyl-3-pyrazolin-4-yl thiocyanate] | 16 | 19.5 | –
13 | Cn1c(N)c(SC#N)c(=O)n1-c1ccccc1 [Formula I: Ph, CH3, NH2, SCN, 3-amino-2-methyl-5-oxo-1-phenyl-3-pyrazolin-4-yl thiocyanate] | 14.4 | 49.6 | –
14 | Cc1c(SC#N)c(=O)n(-c2ccccc2)n1-c1ccccc1 [Formula I: Ph, Ph, CH3, SCN, 3-methyl-5-oxo-1,2-phenyl-3-pyrazolin-4-yl thiocyanate] | 16.1 | 6.1 | –
15 | CCn1c(C)c(SSc2c(C)n(CC)n(-c3ccc(Cl)c(Cl)c3)c2=O)c(=O)n1-c1ccc(Cl)c(Cl)c1 [Formula II: 3,4-Cl2 Ph, C2 H5, CH3, 2-ethyl-3-methyl-5-oxo-1-(3,4-dichlorophenyl)-3-pyrazolin-4-yl disulfide] | – | – | IC50 (CRF receptor; [5]): 2.9 µM; IC50 [1, 6]: 4.3 µM
16 | CCn1c(C)c(SSc2c(C)n(CC)n(Cc3ccccc3)c2=O)c(=O)n1Cc1ccccc1 [Formula II: CH2 Ph, C2 H5, CH3, 1-benzyl-2-ethyl-3-methyl-5-oxo-3-pyrazolin-4-yl disulfide] | – | – | IC50 (CRF receptor; [5]): 4.3 µM; IC50 [1, 6]: 3.8 µM
17 | CCn1c(C)c(SSc2c(C)n(CC)n(-c3ccccc3)c2=O)c(=O)n1-c1ccccc1 [Formula II: Ph, C2 H5, CH3, 2-ethyl-3-methyl-5-oxo-1-phenyl-3-pyrazolin-4-yl disulfide] | – | – | IC50 (CRF receptor; [5]): 4.8 µM; IC50 [1, 6]: 1 µM
18 | CCc1c(SSc2c(CC)n(C)n(-c3ccccc3)c2=O)c(=O)n(-c2ccccc2)n1C [Formula II: Ph, CH3, C2 H5, 3-ethyl-2-methyl-5-oxo-1-phenyl-3-pyrazolin-4-yl disulfide] | – | – | IC50 (CRF receptor; [5]): 3.3 µM; IC50 [1, 6]: 3.3 µM
19 | Cc1c(SSc2c(C)n(C)n(-c3ccccc3)c2=O)c(=O)n(-c2ccccc2)n1C [Formula II: Ph, CH3, CH3, 2,3-Dimethyl-5-Oxo-1-Phenyl-3-Pyrazolin-4-yl Disulfide] | – | – | IC50 (CRF receptor; [5]): 2.2 µM; IC50 [1, 6]: 1.1 µM
20 | Cc1c(SSc2c(C)n(C)n(-c3ccccc3)c2=O)c(=O)n(-c2ccccc2)n1C [Formula II: Ph, CH3, CH3, HCl, 2,3-Dimethyl-5-Oxo-1-Phenyl-3-Pyrazolin-4-yl Disulfide] | – | – | IC50 (CRF receptor; [5]): 6.4 µM; IC50 [1, 6]: 2.5 µM
21 | CRF: corticotropin releasing factor (SEEPPISLDLTFHLLREVLEMARAEQLAQQAHSNRKLMEII; ends and bridges not checked; UniProt P06850 154-194, looked up) | – | – | effect of icv injection of CRF (in words) [2]: elicits behavioral activation; also recorded: produces a long-lasting activation of the electroencephalogram; also recorded: stimulates the sympathoadrenomedullary pathway; also recorded: increases heart rate and blood pressure; also recorded: increases oxygen consumption; also recorded: alters gastrointestinal activity; also recorded: suppresses food consumption; also recorded: compromises immune function
22 | oCRF: ovine CRF, a 41 residue straight chain peptide | – | – | Stimulated enzyme activity, increase over basal levels (adenylate cyclase): 75-95%
